Experimental data taken from ChEMBL document CHEMBL3244225, “Synthesis and biological activity of some vinyl-substituted 2-nitroimidazoles” (J Med Chem, 1977).
In brackets after ≈: the same amount, converted by molar mass. Activity calls are given as the source filed them. The rule behind the calls is not given here.

Legend:
Staphylococcus aureus [1] = test: Antimicrobial activity against Staphylococcus aureus Tour by tube dilution method; format: functional
Streptococcus pyogenes = test: Antimicrobial activity against Streptococcus haemolyticus C 203 by tube dilution method; format: functional
Streptococcus pneumoniae = test: Antimicrobial activity against Diplococcus pneumoniae UC41 by tube dilution method; format: functional
Clostridium perfringens = test: Antimicrobial activity against Clostridium perfringens ISS 30543 by tube dilution method; format: functional
Proteus vulgaris = test: Antimicrobial activity against Proteus vulgaris X19 H ATCC 881 by tube dilution method; format: functional
Escherichia coli [2] = test: Antimicrobial activity against Escherichia coli SKF 12140 by tube dilution method; format: functional
Shigella sonnei = test: Antimicrobial activity against Shigella sonnei ATCC 9290 by tube dilution method; format: functional
Salmonella typhimurium = test: Antimicrobial activity against Salmonella typhimurium Kh by tube dilution method; format: functional, Salmonella enterica subsp. enterica serovar Typhimurium; conditions: Salmonella enterica
Klebsiella pneumoniae = test: Antimicrobial activity against Klebsiella pneumoniae I.S.M. by tube dilution method; format: functional
Pseudomonas aeruginosa = test: Antimicrobial activity against Pseudomonas aeruginosa ATCC 10145 by tube dilution method; format: functional
Candida albicans = test: Antimicrobial activity against Candida albicans SKF 2270 by tube dilution method; format: functional
[3] = tested on: Trichophyton mentagrophytes; test: Antimicrobial activity against Trichophyton mentagrophytes SKF 17410 by tube dilution method; format: functional
[4] = tested on: Mycobacterium tuberculosis; test: Antimicrobial activity against Mycobacterium tuberculosis ATCC 9360 by tube dilution method; format: functional
[5] = tested on: Mycoplasmoides gallisepticum; test: Antimicrobial activity against Mycoplasma gallisepticum H21 C.Z.B. by tube dilution method; format: functional
Trichomonas vaginalis [6] = test: Trichomonastatic activity against Trichomonas vaginalis by tube dilution method; format: functional
Trichomonas vaginalis [7] = test: Trichomonacidal activity against Trichomonas vaginalis by tube dilution method; format: functional
Escherichia coli [8] = test: Antimicrobial activity against Escherichia coli infected in mouse at 250 mg/kg, po; format: functional, organism-based; set-up: dose 250 mg/kg
Escherichia coli [9] = test: Antimicrobial activity against Escherichia coli infected in mouse at 250 mg/kg, sc; format: functional, organism-based; set-up: dose 250 mg/kg
[10] = Toxicity in po dosed mouse infected with Escherichia coli; format: organism-based; conditions: in vivo
[11] = Toxicity in sc dosed mouse infected with Escherichia coli; format: organism-based; conditions: in vivo
Trichomonas vaginalis [12] = test: Ratio of metronidazole ED50 to compound ED50 for Trichomonas vaginalis infected in sc dosed mouse; format: functional
[13] = Toxicity in po dosed mouse infected with Trichomonas vaginalis; format: organism-based; conditions: in vivo
Escherichia coli [14] = test: Antimicrobial activity against Escherichia coli infected in mouse at 200 mg/kg, sc; format: functional, organism-based; set-up: dose 200 mg/kg
Trichomonas vaginalis [15] = test: Antimicrobial activity against Trichomonas vaginalis infected in sc dosed mouse; format: functional
Escherichia coli [16] = test: Antimicrobial activity against Escherichia coli infected in mouse at 300 mg/kg, po; format: functional, organism-based; set-up: dose 300 mg/kg
Staphylococcus aureus [17] = test: Antimicrobial activity against Staphylococcus aureus infected in mouse at 200 mg/kg, po; format: functional, organism-based; set-up: dose 200 mg/kg
Staphylococcus aureus [18] = test: Antimicrobial activity against Staphylococcus aureus infected in mouse at 200 mg/kg, sc; format: functional, organism-based; set-up: dose 200 mg/kg

Structure (SMILES) | MIC (Staphylococcus aureus [1]) | MIC (Streptococcus pyogenes) | MIC (Streptococcus pneumoniae) | MIC (Clostridium perfringens) | MIC (Proteus vulgaris) | MIC (Escherichia coli [2]) | MIC (Shigella sonnei) | MIC (Salmonella typhimurium) | MIC (Klebsiella pneumoniae) | MIC (Pseudomonas aeruginosa) | MIC (Candida albicans) | MIC [3] | MIC [4] | MIC [5] | MIC (Trichomonas vaginalis [6]) | MIC (Trichomonas vaginalis [7]) | Ratio ED50 (Trichomonas vaginalis [12]) | LD50 [13] | ED50 (Trichomonas vaginalis [15]) | further results
CC(/C=C/c1cnc([N+](=O)[O-])n1C)=[N+](\C)[O-] | 50 µg/mL (≈ 223 µM) | 100 µg/mL (≈ 446 µM) | 50 µg/mL (≈ 223 µM) | 10 µg/mL (≈ 44.6 µM) | 100 µg/mL (≈ 446 µM) | 50 µg/mL (≈ 223 µM) | 100 µg/mL (≈ 446 µM) | 100 µg/mL (≈ 446 µM) | 100 µg/mL (≈ 446 µM) | > 100 µg/mL | > 100 µg/mL | > 100 µg/mL | > 100 µg/mL | 50 µg/mL (≈ 223 µM) | 50 µg/mL (≈ 223 µM) | 100 µg/mL (≈ 446 µM) | 2.6 | 700 mg/kg | – | Activity (Escherichia coli [8]): inactive; Activity (Escherichia coli [9]): inactive; LD50 [10]: 700 mg/kg; LD50 [11]: 700 mg/kg
CC(=O)/C=C/c1cnc([N+](=O)[O-])n1C | 50 µg/mL (≈ 256 µM) | 100 µg/mL (≈ 512 µM) | 100 µg/mL (≈ 512 µM) | 5 µg/mL (≈ 25.6 µM) | 100 µg/mL (≈ 512 µM) | 20 µg/mL (≈ 102 µM) | 50 µg/mL (≈ 256 µM) | 50 µg/mL (≈ 256 µM) | 100 µg/mL (≈ 512 µM) | > 100 µg/mL | > 100 µg/mL | 100 µg/mL (≈ 512 µM) | 20 µg/mL (≈ 102 µM) | 50 µg/mL (≈ 256 µM) | 10 µg/mL (≈ 51.2 µM) | 50 µg/mL (≈ 256 µM) | 1.1 | 800 mg/kg | – | Activity (Escherichia coli [14]): inactive
Cc1ncc([N+](=O)[O-])n1CCO [METRONIDAZOLE] | – | – | – | – | – | – | – | – | – | – | – | – | – | – | 0.5 µg/mL (≈ 2.92 µM) | 2 µg/mL (≈ 11.7 µM) | – | – | 12.3 mg/kg | –
Cn1c(/C=C/C=O)cnc1[N+](=O)[O-] | 20 µg/mL (≈ 110 µM) | 10 µg/mL (≈ 55.2 µM) | 5 µg/mL (≈ 27.6 µM) | 20 µg/mL (≈ 110 µM) | 20 µg/mL (≈ 110 µM) | 5 µg/mL (≈ 27.6 µM) | 20 µg/mL (≈ 110 µM) | 5 µg/mL (≈ 27.6 µM) | 10 µg/mL (≈ 55.2 µM) | 100 µg/mL (≈ 552 µM) | > 100 µg/mL | 10 µg/mL (≈ 55.2 µM) | 50 µg/mL (≈ 276 µM) | 50 µg/mL (≈ 276 µM) | 20 µg/mL (≈ 110 µM) | 50 µg/mL (≈ 276 µM) | – | – | – | Activity (Escherichia coli [16]): inactive
Cc1cnc([N+](=O)[O-])n1CCOS(C)(=O)=O | 100 µg/mL (≈ 401 µM) | 100 µg/mL (≈ 401 µM) | > 100 µg/mL | 20 µg/mL (≈ 80.2 µM) | > 100 µg/mL | 100 µg/mL (≈ 401 µM) | 100 µg/mL (≈ 401 µM) | 100 µg/mL (≈ 401 µM) | > 100 µg/mL | > 100 µg/mL | > 100 µg/mL | > 100 µg/mL | > 100 µg/mL | > 100 µg/mL | 50 µg/mL (≈ 201 µM) | 100 µg/mL (≈ 401 µM) | 0.6 | 800 mg/kg | 8.12 mg/kg | –
Cn1c(/C=C/C=[N+](/C)[O-])cnc1[N+](=O)[O-] | 10 µg/mL (≈ 47.6 µM) | 20 µg/mL (≈ 95.2 µM) | 100 µg/mL (≈ 476 µM) | 5 µg/mL (≈ 23.8 µM) | > 100 µg/mL | 50 µg/mL (≈ 238 µM) | 20 µg/mL (≈ 95.2 µM) | 20 µg/mL (≈ 95.2 µM) | 20 µg/mL (≈ 95.2 µM) | > 100 µg/mL | > 100 µg/mL | > 100 µg/mL | 100 µg/mL (≈ 476 µM) | 10 µg/mL (≈ 47.6 µM) | > 100 µg/mL | – | – | – | – | Activity (Staphylococcus aureus [17]): Active; Activity (Staphylococcus aureus [18]): Active; LD50 [10]: 700 mg/kg; LD50 [11]: 700 mg/kg
COC(=O)/C=C/c1cnc([N+](=O)[O-])n1C | > 100 µg/mL | > 100 µg/mL | > 100 µg/mL | > 100 µg/mL | > 100 µg/mL | 50 µg/mL (≈ 237 µM) | 100 µg/mL (≈ 474 µM) | 100 µg/mL (≈ 474 µM) | > 100 µg/mL | > 100 µg/mL | > 100 µg/mL | 100 µg/mL (≈ 474 µM) | 50 µg/mL (≈ 237 µM) | > 100 µg/mL | 10 µg/mL (≈ 47.4 µM) | 50 µg/mL (≈ 237 µM) | >2.8 | > 1000 mg/kg | – | –
C=Cc1cnc([N+](=O)[O-])n1C | 50 µg/mL (≈ 326 µM) | > 100 µg/mL | > 100 µg/mL | 0.5 µg/mL (≈ 3.26 µM) | 100 µg/mL (≈ 653 µM) | 10 µg/mL (≈ 65.3 µM) | 20 µg/mL (≈ 131 µM) | 5 µg/mL (≈ 32.6 µM) | 10 µg/mL (≈ 65.3 µM) | 20 µg/mL (≈ 131 µM) | 100 µg/mL (≈ 653 µM) | 50 µg/mL (≈ 326 µM) | 20 µg/mL (≈ 131 µM) | – | 1 µg/mL (≈ 6.53 µM) | 1 µg/mL (≈ 6.53 µM) | 3 | 480 mg/kg | 14 mg/kg | –
C=Cn1c(C)cnc1[N+](=O)[O-] | > 100 µg/mL | > 100 µg/mL | > 100 µg/mL | > 100 µg/mL | > 100 µg/mL | > 100 µg/mL | > 100 µg/mL | > 100 µg/mL | > 100 µg/mL | > 100 µg/mL | > 100 µg/mL | > 100 µg/mL | > 100 µg/mL | > 100 µg/mL | 20 µg/mL (≈ 131 µM) | 50 µg/mL (≈ 326 µM) | 0.6 | 75 mg/kg | – | –
